According to PubChem BioAssay (NCI):
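Step 1: Grow cells in 96-well plates. Step 2: Expose to compound for 48 hours at 5 concentrations. Step 3: Interpolate endpoints linearly; if unreached, use highest concentration. At the TGI there is no net growth.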

Legend:
Experiment in all cases: inhibition of tumour cell growth, NCI panel, 48 h
NCI-H226 lung = system: NCI-H226 lung
HOP-62 NSCLC = system: HOP-62 NSCLC
HCT-116 colon = system: HCT-116 colon
M14 melanoma = system: M14 melanoma
OVCAR-5 ovarian = system: OVCAR-5 ovarian
RXF 393 renal = system: RXF 393 renal
MALME-3M melanoma = system: MALME-3M melanoma
HCT-15 colon = system: HCT-15 colon
ACHN renal = system: ACHN renal
SNB-75 CNS = system: SNB-75 CNS
UACC-62 melanoma = system: UACC-62 melanoma
SR leukemia = system: SR leukemia
NCI/ADR-RES ovarian = system: NCI/ADR-RES ovarian
HL-60(TB) leukemia = system: HL-60(TB) leukemia
RPMI-8226 leukemia = system: RPMI-8226 leukemia
UACC-257 melanoma = system: UACC-257 melanoma
A498 renal = system: A498 renal
SK-OV-3 ovarian = system: SK-OV-3 ovarian
UO-31 renal = system: UO-31 renal

| Compound | TGI (NCI-H226 lung) [µM] | TGI (HOP-62 NSCLC) [µM] | TGI (HCT-116 colon) [µM] | TGI (M14 melanoma) [µM] | TGI (OVCAR-5 ovarian) [µM] | TGI (RXF 393 renal) [µM] | TGI (MALME-3M melanoma) [µM] | TGI (HCT-15 colon) [µM] | TGI (ACHN renal) [µM] | TGI (SNB-75 CNS) [µM] | TGI (UACC-62 melanoma) [µM] | TGI (SR leukemia) [µM] | TGI (NCI/ADR-RES ovarian) [µM] | TGI (HL-60(TB) leukemia) [µM] | TGI (RPMI-8226 leukemia) [µM] | TGI (UACC-257 melanoma) [µM] | TGI (A498 renal) [µM] | TGI (SK-OV-3 ovarian) [µM] | TGI (UO-31 renal) [µM] |
| --- | --- | --- | --- | --- | --- | --- | --- | --- | --- | --- | --- | --- | --- | --- | --- | --- | --- | --- | --- |
| Cc1nn(C(=O)c2ccncc2)c2c1C(c1ccc(Cl)cc1)SC(N)=N2 (stereo not drawn) | > 10 | > 10 | > 10 | > 10 | > 10 | > 10 | > 10 | > 10 | > 10 | > 10 | > 10 | > 10 | > 10 | > 10 | > 10 | > 10 |  |  |  |
| CCCc1c(O)c(=O)c2c(OC)cc(OC)c3c4c(OC)cc(OC)c5c(=O)c(O)c(CCC)c(c1c23)c54 | 10.9 | 8.11 | 1.23 | 8.65 | 19.4 | 28 |  | 11.6 | 3.58 | 3.53 | 1.88 | 0.463 | 3.55 | 4.64 | 1.11 | 7.06 | 11.9 | 2.96 | 3.35 |
| COc1ccc(C(=O)/C=C/c2ccc(OCCSCCCCCCCCCCSCCOc3ccc(/C=C/C(=O)c4ccc(OC)cc4)cc3)cc2)cc1 | > 100 | > 100 | > 100 | > 100 |  | > 100 |  | > 100 | > 100 | > 100 | > 100 | > 100 | > 100 | > 100 | > 100 | > 100 |  | > 100 | > 100 |
| O=c1[nH]c(=O)n(COCCO)c2ccc(Br)cc12 | > 100 |  | > 100 | > 100 | > 100 | > 100 |  | > 100 | > 100 | > 100 | > 100 | > 100 | > 100 | > 100 |  | > 100 | > 100 | > 100 | > 100 |
| c1ccc(-c2ccc(-c3cc4ccccc4[nH]3)cc2)cc1 | > 100 | > 100 | > 100 | > 100 | > 100 |  | > 100 | > 100 | > 100 | > 100 | > 100 | > 100 | > 100 | > 100 | > 100 | > 100 |  | > 100 | > 100 |
| COC(=O)[C@@H](O)[C@]1(C(=O)OC)C2O[C@@H](OC)[C@@H]1CCCCCC[C@H]2O | > 100 | > 100 | > 100 | > 100 | > 100 | > 100 | > 100 | > 100 | > 100 | > 100 | > 100 | > 100 | > 100 |  | > 100 | > 100 |  | > 100 | > 100 |
| CCN(CCCN(CC)C(=O)Nc1ccccc1)C(=O)Nc1ccccc1 | > 100 | > 100 | > 100 | > 100 | > 100 | > 100 | > 100 | > 100 | > 100 | > 100 | > 100 | > 100 | > 100 | > 100 | > 100 | > 100 |  | > 100 | > 100 |
| CC(=O)CCC(=O)C(=[N+]=[N-])S(=O)(=O)c1ccccc1 |  | > 100 | > 100 | > 100 | > 100 | > 100 | > 100 | > 100 | > 100 | > 100 | > 100 | > 100 | > 100 | > 100 | > 100 | > 100 |  |  | > 100 |
| OCC1OC(Oc2cc(O)cc(/C=C/c3ccc(O)cc3)c2)C(O)C(O)C1O (stereo not drawn) | > 100 | > 100 | > 100 |  | > 100 | > 100 |  | > 100 | > 100 | > 100 | > 100 | > 100 | > 100 | > 100 | > 100 | > 100 | > 100 | > 100 | > 100 |
| CCOC(=O)NC(C(=O)OCC)C(F)(F)F (stereo not drawn) |  | > 100 | > 100 | > 100 | > 100 |  | > 100 | > 100 | > 100 | > 100 |  | > 100 | > 100 | 69.9 | > 100 | > 100 |  | > 100 | > 100 |
| N#CCCSC1SC(=C2SC3=C(SCCS3)S2)SC1SCCC#N (stereo not drawn) |  | > 100 | > 100 | > 100 | > 100 | > 100 |  | > 100 | > 100 |  | > 100 | > 100 | > 100 | > 100 |  | > 100 | > 100 |  | > 100 |
| COc1cc(C[C@H]2C(=O)OC[C@@H]2Cc2ccc(OC)c(OC)c2)cc(OC)c1 | > 100 | > 100 | > 100 | > 100 | > 100 | > 100 | > 100 | > 100 | > 100 | > 100 | > 100 | > 100 | > 100 | 77.1 | > 100 | > 100 |  | > 100 | > 100 |
| O=c1c2c(c1=O)C1(SCCCS1)c1cc(Cl)ccc1O2 | > 100 | > 100 | > 100 | > 100 | > 100 | > 100 | > 100 | > 100 | > 100 | > 100 | > 100 |  | > 100 | > 100 | > 100 | > 100 | > 100 | > 100 | > 100 |
| COc1ccc(Cc2c(N)[nH]c(=O)n(C)c2=O)cc1 | > 100 | > 100 | > 100 | > 100 | > 100 | > 100 | > 100 | > 100 | > 100 | > 100 | > 100 |  | > 100 |  | > 100 | > 100 | > 100 | > 100 | > 100 |
